From patent US10385034B2, “Flavonoid IL-17A inhibitors” (THE CLEVELAND CLINIC FOUNDATION, priority 2014, dated 2019)
Entries after “also recorded” stand apart in the source; their conditions may differ. Read-outs that look alike come from different tables or passages of the source.

Legend:
multiple sclerosis = conditions: 6-month, placebo-controlled trial, 73 patients; cited from earlier work
psoriasis = conditions: patients; cited from earlier work
[1] = tested on: human mammary epithelial cells (HMEC); assay: IL-17A-induced CXCL1 (Groα) production, ELISA; format: cell-based; conditions: IL-17 100 ng/ml, 24 h
From the text: (§1) Reagents, cell culture and mice. Purified proteins of human IL-17A, human IL-17E (IL-25), human IL-17RA-Fc (extracellular domain 1-322 AA fused with Fc region of human IgG1 at the C-terminus), human IL-17RB-Fc (extracellular domain 1-289 AA fused with Fc region of human IgG1 at the C-terminus), human horseradish peroxidase (HRP)-conjugated IgG Fc secondary antibody were purchased from Sino Biological Inc. Human and mouse IL-17A and mouse IL-23 used for cell culture and animal injection were purchased from R&D Systems. Human mammary epithelial cells were maintained in Medium 171 plus mammary epithelial growth supplement (MEGS) purchased from Invitrogen, which contain bovine pituitary extract (BPE) (0.4% v/v), recombinant human insulin-like growth factor-I (1 μg/ml), hydrocortisone (0.5 μg/ml) and human epidermal growth factor (3 ng/ml). A549 cells were maintained in RPMI supplemented with 10% FCS and 100 U/ml penicillin and 100 μg/ml streptomycin. All mice were obtained from Jackson laboratory.
(§2) ELISA. Groα and IL-17A levels were assayed by ELISA kits (R&D systems) according to the manufacturer's instruction.

[2] = biological target: T1, recombinant human IL-17RA ectodomain (Homo sapiens, UniProt Q96F46); assay: Fluorescence binding measurement (fluorescence quenching); conditions: one-site total binding fit
T1 construct: The recombinant human IL-17RA ectodomain was expressed in baculovirus-infected Sf-9 cells; made in house; host or cells: baculovirus-infected Sf-9 cells
T1 sequence (Q96F46 33-320 limits assumed): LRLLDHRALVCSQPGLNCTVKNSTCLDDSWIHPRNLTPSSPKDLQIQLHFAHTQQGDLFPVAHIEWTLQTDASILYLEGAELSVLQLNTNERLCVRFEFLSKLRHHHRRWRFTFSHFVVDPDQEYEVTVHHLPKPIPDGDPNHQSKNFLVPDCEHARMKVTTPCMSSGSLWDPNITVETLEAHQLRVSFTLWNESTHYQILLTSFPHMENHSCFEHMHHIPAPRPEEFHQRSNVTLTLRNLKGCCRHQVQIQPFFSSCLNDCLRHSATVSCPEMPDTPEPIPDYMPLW
Procedure: Fluorescence binding measurement. The recombinant human IL-17RA ectodomain was expressed in baculovirus-infected Sf-9 cells and purified as described previously. Liu et al., Nat Commun 4, 1888 (2013). The compound A18 or A0 was obtained from NCI. The purified IL-17RA protein (final concentration at 1 uM) was mixed with various concentrations of compound A0 in the solution consisting of 20 mM Tris, pH 7.5, 150 mM NaCl, and 5% DMSO in a 96-well black flat-bottom microplate (Greiner Bio-One). The reaction mixtures were incubated at room temperature at 120 rpm for 10 min, and fluorescence intensity was measured on a 2300 EnSpire Multimode Plate Reader (PerkinElmer) with excitation (265 nm) and emission (336 nm) wavelengths for A18 or with excitation (240 nm) and emission (337 nm) wavelengths for A0. The fluorescence signal (relative fluorescence intensity) was obtained by subtracting the background fluorescence of buffer and compound A0, and plotted as a function of the concentration of compound A0. The fluorescence quenching was observed as a consequence of the protein-ligand interaction at dose-dependent concentrations of compound A0, and the binding constant of compound A0 to IL-17RA was estimated by one-site total binding fit model (GraphPad Prism).

A549 cells = assay: IL-17A-induced CXCL1 (Groα) production, ELISA; format: cell-based, human; conditions: A549, IL-17 100 ng/ml, 24 h
From the text: as §1, §2

[3] = tested on: IL-17F-induced gene expression; assay: IL-17F-induced gene expression in epithelial cells; format: cell-based, human; conditions: data not shown
IL-17A-IL-17RA binding = biological target: T2, IL-17A-IL-17RA binding (Homo sapiens, UniProt Q96F46); assay: IL-17A-IL-17RA binding assay (ELISA); conditions: for IC50: in vitro inhibition assay; for Inhibition of IL-17A-IL-17RA binding: serial dilutions of compound
T2 construct: human IL-17RA-Fc (extracellular domain 1-322 AA fused with Fc region of human IgG1 at the C-terminus); purchased Sino Biological Inc
T2 sequence (Q96F46 33-322): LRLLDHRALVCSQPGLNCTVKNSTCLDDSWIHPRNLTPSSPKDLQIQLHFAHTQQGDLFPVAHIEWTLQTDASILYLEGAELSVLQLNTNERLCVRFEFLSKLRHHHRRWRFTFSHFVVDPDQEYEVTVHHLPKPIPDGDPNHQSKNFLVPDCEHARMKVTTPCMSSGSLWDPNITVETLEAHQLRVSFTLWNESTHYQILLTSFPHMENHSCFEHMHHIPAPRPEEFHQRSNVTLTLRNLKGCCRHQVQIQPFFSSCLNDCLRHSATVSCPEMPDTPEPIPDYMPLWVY
Procedure: IL-17A-IL-17RA binding assay. ELISA plates were coated with human IL-17A or IL-17E (2 μg/ml in PBS). Human IL-17RA-Fc or human IL-17RB-Fc (150 ng/ml) were added and incubated for 1 h, followed by incubation with human HRP-conjugated anti human IgG Fc secondary antibody for 1 h. ELISA were finally developed using tetramethylbenzidine substrate.

[4] = read-out: IC50, IL-17A-IL-17RA binding inhibition assay
[5] = read-out: IC50, IL-17A-IL-17RA binding assay

secukinumab: Anti-IL17A antibody (Cosentyx/secukinumab from Novartis)
MS-type brain lesions (multiple sclerosis): significantly lowered | Relapse rates (multiple sclerosis): trend toward reduced | Efficacy for psoriasis (psoriasis): extreme efficacy | Responding rate in psoriasis (psoriasis): greater than 85%

Oc1cc(O)c2c(c1)O[C@@H](c1ccc(O)c(O)c1)[C@H](O)C2 [A0, (2S,3R)-2-(3,4-dihydroxyphenyl)-3,4-dihydro-2H-chromene-3,5,7-triol]
IL-17A-mediated CXCL1 production [1]: greatly inhibited | Binding constant to IL-17RA [2]: in the same range as A18 | IL-17A-mediated CXCL1 production (A549 cells): greatly inhibited | IL-17F-induced gene expression [3]: able to block | IC50 (IL-17A-IL-17RA binding; [4]): 956 nM | Inhibition of IL-17A-IL-17RA binding (IL-17A-IL-17RA binding): excellent inhibition efficacy; also recorded: great inhibition efficacy

O=C(O)c1ccc(O)c(O)c1 [photocatechuic acid, reference compound]
Inhibition of IL-17A-IL-17RA binding (IL-17A-IL-17RA binding): greatly reduced inhibitory activity

Oc1ccc(-c2[o+]c3cc(O)cc(O)c3cc2O)cc1 [pelargonidin, reference compound]
IC50 (IL-17A-IL-17RA binding; [5]): > 100000 nM

Oc1ccc2cc(O)c(-c3ccc(O)c(O)c3)[o+]c2c1 [A18Δ5OH]
IC50 (IL-17A-IL-17RA binding; [5]): > 30000 nM

Oc1cc(O)c2ccc(-c3ccc(O)c(O)c3)[o+]c2c1 [luteolinidin, reference compound]
IC50 (IL-17A-IL-17RA binding; [4]): 198 nM

OC[C@H]1O[C@@H](Oc2cc3c(O)cc(O)cc3[o+]c2-c2ccc(O)c(O)c2)[C@H](O)[C@@H](O)[C@@H]1O [cyanidin-3-O-glucoside, reference compound]
IC50 (IL-17A-IL-17RA binding; [4]): 96.4 nM
